Assay results reported in patent publication US8921414B2, “Spiroketals” (EcoBiotics Ltd, priority 2005, dated 2014).
In brackets after ≈: the same amount, converted by molar mass.

How the values were obtained:
tumor cells = experiment: Cell arrest, comparison of ethacrynic acid with EBI-23; assay type: cell-based
[1] = tested on: normal human fibroblasts (NFF); experiment: Additional in vitro activity: cytotoxic activity, NFF; assay type: cell-based; settings: concentration with activity
melanoma MM96L = experiment: Additional in vitro activity: antitumor activity, MM96L; assay type: cell-based, human; settings: concentration with activity
ovarian C180-13S = experiment: Additional in vitro activity: antitumor activity, C180-13S; assay type: cell-based, human; settings: concentration with activity
[2] = tested on: Neonatal foreskin fibroblasts (NFF); experiment: Cell growth inhibition (Table 22), NFF; assay type: cell-based; settings: Homo sapiens, read-out: IC50 (drug dose which inhibits cell growth by 50%) NFF
Protocol: (§1) The isolated compounds were tested against a number of human and non-human cancer cell lines. The human tumor cell lines were: MCF-7, MDA-MB-231 and T47D, breast cancer; DU145 and PC3, prostate cancer; CI80-13S, ovarian cancer; MM96L, D04, SkMel5, MM418c5 melanoma; HT29, colon cancer; K562 and HL60, leukemia. Mouse cell lines were the B16 mouse melanoma and LK2 UV-induced squamous cell carcinoma (SCC). Neonatal foreskin fibroblasts (NFF) were used as normal control cells. Cells were cultured at 37° C. in 5% carbon dioxide/air, in RPMI 1640 medium containing 10% fetal calf serum.

MCF-7 breast cancer = experiment: Cell growth inhibition (Table 22), MCF7; assay type: cell-based; settings: Homo sapiens, read-out: IC50 (drug dose which inhibits cell growth by 50%) MCF7
Protocol: as §1

DU145 prostate cancer = experiment: Cell growth inhibition (Table 22), DU145; assay type: cell-based; settings: Homo sapiens, DU-145; read-out: IC50 (drug dose which inhibits cell growth by 50%) DU145
Protocol: as §1

K562 leukemia = experiment: Cell growth inhibition (Table 22), K562; assay type: cell-based; settings: Homo sapiens, read-out: IC50 (drug dose which inhibits cell growth by 50%) K562
Protocol: as §1

CI80-13S ovarian cancer = experiment: Cell growth inhibition (Table 22), C180-13S; assay type: cell-based; settings: Homo sapiens, read-out: IC50 (drug dose which inhibits cell growth by 50%) C180-13S
Protocol: as §1

MM96L melanoma = experiment: Cell growth inhibition (Table 22), MM96L; assay type: cell-based; settings: Homo sapiens, read-out: IC50 (drug dose which inhibits cell growth by 50%) MM96L
Protocol: as §1

Bacillus subtilis = experiment: ProTOX (Bs) antibacterial bioassay; assay type: cell-based; settings: weight of chemical in last well with activity; real value may be lower
Source text: ProTOX, (alternatively referred to herein as Bs) is an antibacterial bioassay, broadly applicable to most aerobic and anaerobic bacteria. The bioassay features a solid phase agar base into which the test compound has been incorporated together with a chromogen. As the bacteria multiply in the well, the chromogen is metabolised from blue in a two-step process to a colourless compound. Compounds with potent bactericidal activity inhibit bacterial metabolism of the chromogen while bacteriostatic compounds induce limited metabolism as indicated by an intermediate pink colour. ProTOX is broadly applicable to a range of gram-positive and gram-negative bacteria under aerobic and microaerophilic conditions. ProTOX assays were carried out using Bacillus subtilis. Briefly, in ProTOX, the bacteria (24 hour broth) were applied to the surface of an agar matrix containing the test sample and allowed to grow for 48 h. The assay was monitored at 24 and 48 hours and the active wells noted. Known antibiotics yield consistent colour transitions which are concentration and time dependent. These patterns provided an important guide to the early recognition of interesting characteristics.

[3] = tested on: NS1 murine myeloma cell line; experiment: CyTOX (Cy) cytotoxicity bioassay; assay type: cell-based; settings: weight of chemical in last well with activity; real value may be lower
Source text: CyTOX (alternatively referred to herein as Cy) is a microtitre plate bioassay use to identify potential antitumor actives. CyTOX is a chromogenic bioassay with broad application to a wide range of tumor and non-tumor cell lines. […] CyTOX features a liquid media into which the test compound has been incorporated together with a novel chromogen. As the cells grow and divide the chromogen is metabolised from purple in a single step process to a colourless metabolite. CyTOX is routinely undertaken using NS1 murine myeloma cell line as a guide to mammalian cell toxicity. Briefly, in CyTOX the cells were applied to the media containing the test chemical and allowed to grow for 72 hours. The assay was monitored at 24, 48 and 72 hours and the active wells identified.

Drosophila melanogaster = experiment: DipteraTOX insecticidal bioassay; parameters: key: A value of A in DipG, Dip P or Dip H represents very active; a value of P represents active; settings: 250 μg per mL in agar
Protocol: DipteraTOX. DipteraTOX is referred to herein as DipG, DipP and DipH. DipG represents no grazing of larva. DipP represents no pupae formation and Dip H represents no hatching of flies. A value of A in DipG, Dip P or Dip H represents very active and a value of P represents active. In DipteraTox the fly eggs are applied to the surface of an agar matrix containing 250 μg per mL of the test chemical and allowed to hatch, develop and pupate for a period up of two weeks. The assay was monitored at two discrete times to determine the extent of grazing of the agar matrix at Week 1 and the presence of adult flies at Week 2. […] Drosophila melanogaster was utilised for this assay.

Giardia spp. = experiment: TriTOX (Gi) anti-protozoan bioassay; assay type: cell-based; settings: weight of chemical in last well with activity; real value may be lower
Source text: TriTOX (alternatively referred to herein as Gi) is a microtitre plate based chromogenic bioassay for the screening of anti-protozoan activity of pathogenic, anaerobic/microaerophilic protozoans for example Giardia spp. and Trichomonas spp. The bioassays are run under anaerobic conditions and features species specific chromogens. […] Aliquots of each concentration(s) are applied to the wells of 96-well microtitre plates and diluted with media. […] The lowest concentration at which the compound is active is noted as the minimum inhibitory concentration (MIC). Additionally, microscopic inspection is carried out to identify any patterns of morphological change that may be consistent with a type of toxicity and therefore mode of action. Giardia spp. was utilized for this assay.

leukemia K562 = experiment: Additional in vitro activity: antitumor activity, K562; assay type: cell-based, human; settings: concentration with activity
melanoma MM418c5 = experiment: Additional in vitro activity: antitumor activity, MM418c5; assay type: cell-based, human; settings: concentration with activity
prostate DU145 = experiment: Additional in vitro activity: antitumor activity, DU145; assay type: cell-based, human; settings: concentration with activity
breast MCF-7 = experiment: Additional in vitro activity: antitumor activity, MCF-7; assay type: cell-based, human; settings: concentration with activity

Structure (SMILES)	fold higher concentration than EBI-23 to achieve cell arrest (tumor cells) [fold]	selectivity against tumor cells (tumor cells)	cytotoxic activity against normal human fibroblasts (NFF) at [1] [µg/mL]	antitumor activity against melanoma MM96L at (melanoma MM96L) [µg/mL]	antitumor activity against ovarian C180-13S at (ovarian C180-13S) [µg/mL]	IC50 [2] [mg/L]	IC50 (MCF-7 breast cancer) [mg/L]	IC50 (DU145 prostate cancer) [mg/L]	IC50 (K562 leukemia) [mg/L]	IC50 (CI80-13S ovarian cancer) [mg/L]	IC50 (MM96L melanoma) [mg/L]	Bs LD99 (Bacillus subtilis) [µg/mL]	Cy LD99 [3] [µg/mL]	DipH (no hatching of flies) (Drosophila melanogaster)	Gi LD99 (Giardia spp.) [µg/mL]	antitumor activity against leukemia K562 at (leukemia K562) [µg/mL]	antitumor activity against melanoma MM418c5 at (melanoma MM418c5) [µg/mL]	antitumor activity against prostate DU145 at (prostate DU145) [µg/mL]	antitumor activity against breast MCF-7 at (breast MCF-7) [µg/mL]
C=C(CC)C(=O)c1ccc(OCC(=O)O)c(Cl)c1Cl [ethacrynic acid]	10	no selectivity																	
CCCCCCCCCCCCCC(CC1C=CCC2(CC3OC(=O)C=CC3O2)O1)OC(C)=O (stereo not shown) [EBI-42]			> 10	10	10	> 10	6 (≈ 12.6 µM)	> 10	> 10	6 (≈ 12.6 µM)	6 (≈ 12.6 µM)								
CCCCCCCCCCCCCC(CC1CC(O)CC2(CC3OC(=O)C=CC3O2)O1)OC(C)=O (stereo not shown) [EBI-25]			30	10	3	3 (≈ 6.06 µM)	0.34 (≈ 0.687 µM)	1 (≈ 2.02 µM)	6.1 (≈ 12.3 µM)	5 (≈ 10.1 µM)	1.6 (≈ 3.23 µM)	25	1.6	P	50	30	10	30	300
